molecular target: T1, TbAUK1 (Trypanosoma brucei brucei, UniProt Q384J7); experiment: not given; details: at 200 nM; cited from earlier work

Structure (SMILES)	inhibition of TbAUK1 kinase activity
CCS(=O)(=O)Nc1ccc2c(c1)/C(=C(/Nc1ccc(CN3CCCCC3)cc1)c1ccccc1)C(=O)N2 [Hesperadin, hesperadin]	to the level of a background kinase

test system: T. brucei rhodesiense YTAT1.1 strain; experiment: dose-response against T. b. rhodesiense cultures, Cell Titer Blue assay; type: cell-based, Trypanosoma brucei rhodesiense; details: ratio MOLT-4 EC50 / T. b. rhodesiense EC50

Structure (SMILES)	Selectivity MOLT/Tbr
CN1CCN(c2ccc(C(=O)Nc3n[nH]c4c3CN(C(=O)Cc3cccc5ccccc35)C4)cc2)CC1 [Compound 8, 4-(4-Methylpiperazin-1-yl)-N-(5-(2-(naphthalen-1-yl)acetyl)-1,4,5,6-tetrahydropyrrolo[3,4-c]pyrazol-3-yl)benzamide]	23.4
CN1CCN(c2ccc(C(=O)Nc3n[nH]c4c3CN(C(=O)Cc3c(F)ccc(F)c3F)C4)cc2)CC1 [Compound 9, 4-(4-Methylpiperazin-1-yl)-N-(5-(2-(2,3,6-trifluorophenyl)acetyl)-1,4,5,6-tetrahydropyrrolo[3,4-c]pyrazol-3-yl)benzamide]	6.9
CN1CCN(c2ccc(C(=O)Nc3n[nH]c4c3CN(C(=O)Cc3cccc(Cl)c3)C4)cc2)CC1 [Compound 11, N-(5-(2-(3-Chlorophenyl)acetyl)-1,4,5,6-tetrahydropyrrolo[3,4-c]pyrazol-3-yl)-4-(4-methylpiperazin-1-yl)benzamide]	6.9
Cc1ccc(C(C)C(=O)N2Cc3[nH]nc(NC(=O)c4ccc(N5CCN(C)CC5)cc4)c3C2)cc1 (centres unmarked) [Compound 13, 4-(4-Methylpiperazin-1-yl)-N-(5-(2-(p-tolyl)propanoyl)-1,4,5,6-tetrahydropyrrolo[3,4-c]pyrazol-3-yl)benzamide]	6.4
Cc1cc(C)cc(CC(=O)N2Cc3[nH]nc(NC(=O)c4ccc(N5CCN(C)CC5)cc4)c3C2)c1 [Compound 14, N-(5-(2-(3,5-Dimethylphenyl)acetyl)-1,4,5,6-tetrahydropyrrolo[3,4-c]pyrazol-3-yl)-4-(4-methylpiperazin-1-yl)benzamide]	4.3
Cc1ccc(C)c(CC(=O)N2Cc3[nH]nc(NC(=O)c4ccc(N5CCN(C)CC5)cc4)c3C2)c1 [Compound 15, N-(5-(2-(2,5-Dimethylphenyl)acetyl)-1,4,5,6-tetrahydropyrrolo[3,4-c]pyrazol-3-yl)-4-(4-methylpiperazin-1-yl)benzamide]	2.2
CN1CCN(c2ccc(C(=O)Nc3n[nH]c4c3CN(C(=O)Cc3cc(F)cc(F)c3F)C4)cc2)CC1 [Compound 16, 4-(4-Methylpiperazin-1-yl)-N-(5-(2-(2,3,5-trifluorophenyl)acetyl)-1,4,5,6-tetrahydropyrrolo[3,4-c]pyrazol-3-yl)benzamide]	1.2
Cc1[nH]c2ccccc2c1CC(=O)N1Cc2[nH]nc(NC(=O)c3ccc(N4CCN(C)CC4)cc3)c2C1 [Compound 17, N-(5-(2-(2-Methyl-1H-indol-3-yl)acetyl)-1,4,5,6-tetrahydropyrrolo[3,4-c]pyrazol-3-yl)-4-(4-methylpiperazin-1-yl)benzamide]	1.0
CN1CCN(c2ccc(C(=O)Nc3n[nH]c4c3CN(C(=O)Cc3cc(F)cc(F)c3)C4)cc2)CC1 [Compound 18, N-(5-(2-(3,5-Difluorophenyl)acetyl)-1,4,5,6-tetrahydropyrrolo[3,4-c]pyrazol-3-yl)-4-(4-methylpiperazin-1-yl)benzamide]	0.7

test system: 15 different cancer cell lines; experiment: not given; details: read-out: mean EC50 averaged from 15 different cancer cell lines; cited from earlier work

Structure (SMILES)	EC50
CO[C@@H](C(=O)N1Cc2[nH]nc(NC(=O)c3ccc(N4CCN(C)CC4)cc3)c2C1)c1ccccc1 [Compound 1, danusertib]	123 nM

molecular target: T1, TbAUK1; experiment: in vitro kinase assay with immunoprecipitated AU1-tagged TbAUK1; type: biochemical; details: tested at 500 nM; AU1-tagged TbAUK1 pull-down, MBP substrate

Structure (SMILES)	inhibition of TbAUK1 kinase activity
CO[C@@H](C(=O)N1Cc2[nH]nc(NC(=O)c3ccc(N4CCN(C)CC4)cc3)c2C1)c1ccccc1 [Compound 1, danusertib]	inhibited TbAUK1 to the same background level as hesperadin
CCc1cccc(CC)c1NC(=O)N1Cc2[nH]nc(NC(=O)c3ccc(N4CCN(C)CC4)cc3)c2C1 [Compound 2, PHA-680632]	inhibited TbAUK1 to the same background level as hesperadin
CCS(=O)(=O)Nc1ccc2c(c1)/C(=C(/Nc1ccc(CN3CCCCC3)cc1)c1ccccc1)C(=O)N2 [Hesperadin, hesperadin]	completely inhibited TbAUK1

Source: article PMC3516633 (European journal of medicinal chemistry, 2012)
